# In the Kinase Knowledgebase extract (Sharma et al. 2016):
# Target: EGFR (UniProt P00533)
# Sequence (P00533 whole entry, looked up): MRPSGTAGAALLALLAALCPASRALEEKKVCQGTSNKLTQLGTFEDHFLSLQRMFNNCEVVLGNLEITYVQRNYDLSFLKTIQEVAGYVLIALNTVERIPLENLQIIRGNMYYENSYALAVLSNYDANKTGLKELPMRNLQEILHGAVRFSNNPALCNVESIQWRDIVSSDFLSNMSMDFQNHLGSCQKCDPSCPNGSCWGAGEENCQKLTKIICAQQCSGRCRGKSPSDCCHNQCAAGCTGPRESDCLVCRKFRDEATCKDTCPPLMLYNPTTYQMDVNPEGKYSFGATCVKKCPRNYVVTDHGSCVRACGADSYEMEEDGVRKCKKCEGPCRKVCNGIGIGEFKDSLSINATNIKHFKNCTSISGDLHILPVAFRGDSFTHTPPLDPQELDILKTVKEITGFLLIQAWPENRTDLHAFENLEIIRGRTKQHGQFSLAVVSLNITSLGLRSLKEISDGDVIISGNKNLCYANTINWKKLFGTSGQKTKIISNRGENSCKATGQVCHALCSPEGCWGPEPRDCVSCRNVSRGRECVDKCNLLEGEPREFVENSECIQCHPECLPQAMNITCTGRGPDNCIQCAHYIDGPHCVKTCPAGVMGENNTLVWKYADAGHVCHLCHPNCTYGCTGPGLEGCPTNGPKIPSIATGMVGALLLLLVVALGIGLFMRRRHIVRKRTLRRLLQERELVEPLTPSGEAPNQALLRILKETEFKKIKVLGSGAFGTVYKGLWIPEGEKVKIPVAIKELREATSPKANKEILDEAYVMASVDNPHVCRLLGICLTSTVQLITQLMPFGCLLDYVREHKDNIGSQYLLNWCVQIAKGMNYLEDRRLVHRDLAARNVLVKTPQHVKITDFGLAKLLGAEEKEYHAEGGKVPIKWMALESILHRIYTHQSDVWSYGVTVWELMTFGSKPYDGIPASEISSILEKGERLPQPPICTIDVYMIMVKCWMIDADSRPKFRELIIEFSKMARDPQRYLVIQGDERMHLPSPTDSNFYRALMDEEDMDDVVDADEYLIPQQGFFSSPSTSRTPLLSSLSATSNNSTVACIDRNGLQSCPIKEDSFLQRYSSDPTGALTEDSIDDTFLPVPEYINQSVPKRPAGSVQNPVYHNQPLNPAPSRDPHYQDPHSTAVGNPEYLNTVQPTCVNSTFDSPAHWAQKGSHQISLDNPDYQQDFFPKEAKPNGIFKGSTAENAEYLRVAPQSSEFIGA
row,Compound,IC50 [µM]
1,COC(=O)c1cn2ncnc(C3C(=O)Nc4ccc(C#N)cc43)c2c1C (stereo not drawn),0.003 to 25
2,Cc1ccc(Nc2ncnn3cc(C)c(C)c23)cc1O,0.003 to 25
3,CCCc1c(C(=O)NCCCN2CCCC2)cn2ncnc(Nc3ccc(C)c(O)c3)c12,0.003 to 25
4,COC(=O)c1cn2ncnc(Nc3cc(O)c4ccccc4c3)c2c1C,0.003 to 25
5,Cc1c(N(C)C)c(CO)n2ncnc(C3C(=O)Nc4ccccc43)c12 (stereo not drawn),0.003 to 25
6,COC(=O)c1cn2ncnc(-n3[nH]c4ccccc4c3=O)c2c1C,0.003 to 25
7,CCOC(=O)c1cn2ncnc(Nc3ccc(Cl)nc3)c2c1CC,0.003 to 25
8,Cc1ccc(Nc2ncnn3cc(C(=O)NCCCN4CCCC4)c(C)c23)cc1O,0.003 to 25
9,CCc1c(C(=O)NCCN2CCOCC2)cn2ncnc(Nc3ccc4c(cnn4Cc4ccccc4)c3)c12,0.003 to 25
10,CCOC(=O)c1cn2ncnc(C3C(=O)Nc4ccccc43)c2c1C(=O)OCC (stereo not drawn),0.003 to 25
11,CCOC(=O)c1cn2ncnc(Nc3ccc(Br)cc3F)c2c1OC,0.003 to 25
12,COC(=O)c1cn2ncnc(Nc3ccc(Oc4ccccc4)cc3)c2c1C,0.003 to 25
13,CCOC(=O)c1cn2ncnc(Nc3ccc(O)cc3)c2c1CC,0.003 to 25
